Measured values: ChEMBL document CHEMBL1141937, “Inhibition of Tpl2 kinase and TNF-alpha production with 1,7-naphthyridine-3-carbonitriles: synthesis and structure-activity relationships” (Bioorg Med Chem Lett, 2005)
Converted amounts (≈) assume the structure as drawn. Blank lines part the entries; values can stand above or below the compound they belong to.

What was measured:
[1] = target: T1, Mitogen-activated protein kinase kinase kinase 8 (Homo sapiens, UniProt P41279); assay: Inhibitory activity against human Tpl2 kinase via quantification of MEK phosphorylation; type: functional
Target sequence in this assay (P41279 whole entry): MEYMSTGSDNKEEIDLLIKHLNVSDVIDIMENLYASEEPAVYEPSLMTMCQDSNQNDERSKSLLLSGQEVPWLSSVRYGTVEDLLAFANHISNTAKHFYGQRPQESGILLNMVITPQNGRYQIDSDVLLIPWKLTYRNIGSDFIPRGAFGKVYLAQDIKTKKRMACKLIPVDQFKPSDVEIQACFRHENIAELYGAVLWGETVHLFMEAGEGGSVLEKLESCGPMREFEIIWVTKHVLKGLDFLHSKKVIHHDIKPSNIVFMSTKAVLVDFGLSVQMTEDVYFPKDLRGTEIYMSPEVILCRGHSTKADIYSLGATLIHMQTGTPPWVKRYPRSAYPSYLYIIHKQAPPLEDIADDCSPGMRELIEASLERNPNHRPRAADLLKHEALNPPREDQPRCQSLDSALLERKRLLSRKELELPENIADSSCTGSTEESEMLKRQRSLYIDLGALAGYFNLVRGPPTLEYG

[2] = target: MAP kinase-activated protein kinase 2 (Homo sapiens, UniProt P49137); assay: Inhibitory activity against MK2
Chain of MAP kinase-activated protein kinase 2 (P49137 whole entry): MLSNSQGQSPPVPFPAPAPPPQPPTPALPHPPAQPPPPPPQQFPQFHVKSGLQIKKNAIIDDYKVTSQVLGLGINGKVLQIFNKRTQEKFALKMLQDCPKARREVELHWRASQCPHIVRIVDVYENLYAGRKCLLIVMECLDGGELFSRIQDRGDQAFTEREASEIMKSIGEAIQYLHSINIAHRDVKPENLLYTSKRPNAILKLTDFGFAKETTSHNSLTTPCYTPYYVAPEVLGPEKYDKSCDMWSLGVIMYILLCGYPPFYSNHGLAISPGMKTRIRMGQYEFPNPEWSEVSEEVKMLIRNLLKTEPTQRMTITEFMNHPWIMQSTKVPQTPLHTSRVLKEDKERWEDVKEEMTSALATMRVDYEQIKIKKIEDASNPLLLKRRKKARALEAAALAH

Protein kinase C (PKC) = assay: Inhibitory activity against PKC; type: protein assay
[3] = Plasma binding to human serum albumin; type: ADME; conditions: read-out: PPB (converted)
[4] = target: Dual specificity mitogen-activated protein kinase kinase 1 (Homo sapiens, UniProt Q02750); assay: Inhibitory activity against MEK
Chain of Dual specificity mitogen-activated protein kinase kinase 1 (Q02750 whole entry): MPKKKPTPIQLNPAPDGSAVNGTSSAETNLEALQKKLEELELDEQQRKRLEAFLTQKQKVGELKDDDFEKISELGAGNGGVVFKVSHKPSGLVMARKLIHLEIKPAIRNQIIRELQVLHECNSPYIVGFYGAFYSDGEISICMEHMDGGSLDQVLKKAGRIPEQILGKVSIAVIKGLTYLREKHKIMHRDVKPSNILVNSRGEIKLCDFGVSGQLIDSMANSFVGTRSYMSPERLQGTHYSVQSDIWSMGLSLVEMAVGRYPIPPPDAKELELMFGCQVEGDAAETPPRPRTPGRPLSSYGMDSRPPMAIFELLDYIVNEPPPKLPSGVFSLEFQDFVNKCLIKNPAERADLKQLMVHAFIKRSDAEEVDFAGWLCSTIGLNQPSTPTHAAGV

[5] = target: Proto-oncogene tyrosine-protein kinase Src (Homo sapiens, UniProt P12931); assay: Inhibitory activity against Src
Chain of Proto-oncogene tyrosine-protein kinase Src (P12931 2-536 limits assumed): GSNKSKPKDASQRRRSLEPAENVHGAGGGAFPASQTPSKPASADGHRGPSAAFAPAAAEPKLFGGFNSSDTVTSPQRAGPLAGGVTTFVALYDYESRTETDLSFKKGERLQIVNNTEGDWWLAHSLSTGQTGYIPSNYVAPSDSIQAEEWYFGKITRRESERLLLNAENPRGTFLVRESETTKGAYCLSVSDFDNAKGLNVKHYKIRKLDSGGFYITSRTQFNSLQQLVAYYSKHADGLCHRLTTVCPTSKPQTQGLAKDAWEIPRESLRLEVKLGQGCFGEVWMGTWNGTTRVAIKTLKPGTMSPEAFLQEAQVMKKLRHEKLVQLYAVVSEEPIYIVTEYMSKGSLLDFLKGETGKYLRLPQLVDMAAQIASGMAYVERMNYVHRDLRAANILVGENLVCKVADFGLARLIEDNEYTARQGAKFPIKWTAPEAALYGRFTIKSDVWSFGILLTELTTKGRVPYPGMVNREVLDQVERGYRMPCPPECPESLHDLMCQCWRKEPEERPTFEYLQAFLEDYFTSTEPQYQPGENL

[6] = Solubility determined; type: physicochemical
[7] = target: T1, Mitogen-activated protein kinase kinase kinase 8; assay: Inhibition of LPS-induced TNFalpha production in primary human monocytes
Target sequence in this assay (P41279 whole entry, looked up): as the sequence (P41279 whole entry) above

MAP kinase p38 = MAP kinase p38 (Homo sapiens, UniProt O15264+Q15759+Q16539+P53778); assay: Inhibitory activity against p38; type: protein assay
[8] = target: T1, Mitogen-activated protein kinase kinase kinase 8; assay: Inhibition of LPS-induced TNFalpha production in human whole blood
Target sequence in this assay (P41279 whole entry, looked up): as the sequence (P41279 whole entry) above

Structure (SMILES): CC[C@H](Nc1cc2c(Nc3ccc(F)c(Cl)c3)c(C#N)cnc2cn1)c1ccccc1
IC50 [1]: > 40 µM

Structure (SMILES): N#Cc1cnc2cnc(NCCN3CCOCC3)cc2c1Nc1ccc(Cl)cc1F
IC50 [1]: 10 µM

Structure (SMILES): CN(Cc1ccccc1)c1cc2c(Nc3ccc(F)c(Cl)c3)c(C#N)cnc2cn1
IC50 [1]: > 40 µM

Structure (SMILES): N#Cc1cnc2cnc(NC3CCCC3)cc2c1Nc1ccc(F)c(Cl)c1
IC50 [1]: > 40 µM

Structure (SMILES): N#Cc1cnc2cnc(NCc3ccccc3)cc2c1Nc1ccc(F)c(Cl)c1
IC50 [1]: 0.073 µM

Structure (SMILES): N#Cc1cnc2cnc(NCc3cccnc3)cc2c1Nc1ccc(F)c(Cl)c1
IC50 [2]: 110 µM
IC50 (Protein kinase C (PKC)): > 400 µM
fraction unbound [3]: 0.02
IC50 [4]: > 40 µM
IC50 [5]: > 400 µM
solubility ([6]; read-out: Solubility): 2 µg/mL (≈ 4.94 µM)

Structure (SMILES): C[C@H](Nc1cc2c(Nc3ccc(F)c(Cl)c3)c(C#N)cnc2cn1)c1ccccc1
IC50 [1]: 27 µM

Structure (SMILES): CN1CCN(CCCNc2cc3c(Nc4ccc(F)c(Cl)c4)c(C#N)cnc3cn2)CC1
IC50 [1]: 21 µM

Structure (SMILES): N#Cc1cnc2cnc(NCCN3CCOCC3)cc2c1NCc1ccc(F)c(Cl)c1
IC50 [1]: > 40 µM

Structure (SMILES): N#Cc1cnc2cnc(NCCCN3CCCC3)cc2c1Nc1ccc(F)c(Cl)c1
IC50 [1]: 3.57 µM

Now from value to compound:

IC50 [1]: 1.8 µM
Structure (SMILES): N#Cc1cnc2cnc(NC(CN3CCOCC3)c3ccccc3)cc2c1Nc1ccc(F)c(Cl)c1 (stereo unspecified)

IC50 [1]: > 40 µM
Structure (SMILES): N#Cc1cnc2cnc(NCCN3CCOCC3)cc2c1Nc1ccc(Cl)cc1

IC50 [1]: 10 µM
Structure (SMILES): N#Cc1cnc2cnc(NCCN3CCOCC3)cc2c1Nc1ccc(Cl)c(Cl)c1

IC50 [2]: > 400 µM
IC50 (Protein kinase C (PKC)): 30 µM
fraction unbound [3]: 0.15
IC50 [4]: 15 µM
IC50 [5]: 40 µM
solubility ([6]; read-out: Solubility): 64 µg/mL (≈ 150 µM)
Structure (SMILES): N#Cc1cnc2cnc(NCCN3CCOCC3)cc2c1Nc1ccc(F)c(Cl)c1

IC50 [1]: > 40 µM
Structure (SMILES): N#Cc1cnc2cnc(NCCN3CCOCC3)cc2c1Nc1ccc(C(F)(F)F)cc1

IC50 [1]: 3.4 µM
Structure (SMILES): N#Cc1cnc2cnc(NCCCN3CCOCC3)cc2c1Nc1ccc(F)c(Cl)c1

IC50 [1]: > 40 µM
Structure (SMILES): N#Cc1cnc2cnc(NCCN3CCOCC3)cc2c1Nc1ccc(S(=O)(=O)c2ccccc2)cc1

IC50 [1]: > 40 µM
Structure (SMILES): Cc1c(Br)cccc1Nc1c(C#N)cnc2cnc(NCCN3CCOCC3)cc12

IC50 [2]: > 400 µM
IC50 (Protein kinase C (PKC)): > 400 µM
fraction unbound [3]: < 0.01
IC50 [4]: 0.96 µM
IC50 [5]: 3 µM
solubility ([6]; read-out: Solubility): 1 µg/mL (≈ 2.07 µM)
Structure (SMILES): N#Cc1cnc2cnc(NCCN3CCOCC3)cc2c1Nc1ccc(Sc2ccccc2)cc1

IC50 [2]: > 400 µM
IC50 [1]: 0.38 µM
IC50 (Protein kinase C (PKC)): 200 µM
fraction unbound [3]: < 0.01
IC50 [4]: 0.8 µM
IC50 [5]: 90 µM
solubility ([6]; read-out: Solubility): 1 µg/mL (≈ 2.14 µM)
Structure (SMILES): N#Cc1cnc2cnc(NCCN3CCOCC3)cc2c1Nc1ccc(Oc2ccccc2)cc1

IC50 [7]: 0.8 µM
IC50 [2]: > 400 µM
IC50 [1]: 0.002 µM
IC50 (Protein kinase C (PKC)): > 400 µM
fraction unbound [3]: 0.01
IC50 [4]: 0.63 µM
IC50 (MAP kinase p38): > 400 µM
IC50 [8]: 13.6 µM
IC50 [5]: 4 µM
solubility [6]: Insoluble
Structure (SMILES): N#Cc1cnc2cnc(NCCN3CCOCC3)cc2c1Nc1ccc(Cc2ccccc2)cc1
